Test results from ChEMBL document CHEMBL4421728, “Bach1 Inhibitors in Combination with Nrf2 Activators and Pharmaceutical Compositions Thereof” (2017).

Tests used:
[1] = biological target: T1, Transcription regulator protein BACH1 (Homo sapiens) (UniProt O14867); assay: Inhibition of Bach1 in normal human lung fibroblasts assessed as induction of HMOX protein expression at 2.5 uM incubated for 16 to 18 hrs in presence of 0.156 uM Nrf2 activator Bardoxolone methyl by immunostaining relative to control
T1 sequence (whole entry): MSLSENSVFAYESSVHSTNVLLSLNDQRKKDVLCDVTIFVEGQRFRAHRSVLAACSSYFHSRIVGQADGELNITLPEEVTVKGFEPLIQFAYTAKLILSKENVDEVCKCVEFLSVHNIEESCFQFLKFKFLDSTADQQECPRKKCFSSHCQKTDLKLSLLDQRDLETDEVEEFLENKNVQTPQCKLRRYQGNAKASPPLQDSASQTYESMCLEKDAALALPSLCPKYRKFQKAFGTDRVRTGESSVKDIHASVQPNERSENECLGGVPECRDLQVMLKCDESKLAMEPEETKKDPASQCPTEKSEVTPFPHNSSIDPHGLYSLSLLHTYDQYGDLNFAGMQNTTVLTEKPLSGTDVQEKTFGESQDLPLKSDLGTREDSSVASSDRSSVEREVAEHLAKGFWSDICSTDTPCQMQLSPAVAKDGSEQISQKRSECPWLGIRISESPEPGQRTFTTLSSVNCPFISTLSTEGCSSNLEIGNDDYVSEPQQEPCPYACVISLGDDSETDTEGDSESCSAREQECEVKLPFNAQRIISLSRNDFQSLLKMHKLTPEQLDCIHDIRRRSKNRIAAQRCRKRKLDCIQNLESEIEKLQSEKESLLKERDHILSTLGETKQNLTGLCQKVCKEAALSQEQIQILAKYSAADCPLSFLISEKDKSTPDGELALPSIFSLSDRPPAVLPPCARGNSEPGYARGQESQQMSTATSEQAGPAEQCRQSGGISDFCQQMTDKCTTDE

[2] = biological target: T1, Transcription regulator protein BACH1 (Homo sapiens); assay: Inhibition of Bach1 in normal human lung fibroblasts assessed as induction of HMOX protein expression at 0.078 uM incubated for 16 to 18 hrs in presence of 0.156 uM Nrf2 activator Bardoxolone methyl by immunostaining relative to control
[3] = biological target: T1, Transcription regulator protein BACH1 (Homo sapiens); assay: Inhibition of Bach1 in normal human lung fibroblasts assessed as induction of HMOX protein expression at 0.156 uM incubated for 16 to 18 hrs in presence of 0.019 uM Nrf2 activator Bardoxolone methyl by immunostaining relative to control
[4] = biological target: T1, Transcription regulator protein BACH1 (Homo sapiens); assay: Inhibition of Bach1 in normal human lung fibroblasts assessed as induction of HMOX protein expression at 0.625 uM incubated for 16 to 18 hrs by immunostaining relative to control
[5] = biological target: T1, Transcription regulator protein BACH1 (Homo sapiens); assay: Inhibition of Bach1 in normal human lung fibroblasts assessed as induction of HMOX protein expression at 0.156 uM incubated for 16 to 18 hrs in presence of 0.0048 uM Nrf2 activator Bardoxolone methyl by immunostaining relative to control
[6] = biological target: T1, Transcription regulator protein BACH1 (Homo sapiens); assay: Inhibition of Bach1 in normal human lung fibroblasts assessed as induction of HMOX protein expression at 0.019 uM incubated for 16 to 18 hrs in presence of 0.039 uM Nrf2 activator Bardoxolone methyl by immunostaining relative to control
[7] = biological target: T1, Transcription regulator protein BACH1 (Homo sapiens); assay: Inhibition of Bach1 in normal human lung fibroblasts assessed as induction of HMOX protein expression at 0.039 uM incubated for 16 to 18 hrs in presence of 0.0024 uM Nrf2 activator Bardoxolone methyl by immunostaining relative to control
[8] = biological target: T1, Transcription regulator protein BACH1 (Homo sapiens); assay: Inhibition of Bach1 in normal human lung fibroblasts assessed as induction of HMOX protein expression at 0.019 uM incubated for 16 to 18 hrs in presence of 0.0024 uM Nrf2 activator Bardoxolone methyl by immunostaining relative to control
[9] = biological target: T1, Transcription regulator protein BACH1 (Homo sapiens); assay: Inhibition of Bach1 in normal human lung fibroblasts assessed as induction of HMOX protein expression at 2.5 uM incubated for 16 to 18 hrs by immunostaining relative to control
[10] = biological target: T1, Transcription regulator protein BACH1 (Homo sapiens); assay: Inhibition of Bach1 in normal human lung fibroblasts assessed as induction of HMOX protein expression at 0.625 uM incubated for 16 to 18 hrs in presence of 0.312 uM Nrf2 activator Bardoxolone methyl by immunostaining relative to control
[11] = biological target: T1, Transcription regulator protein BACH1 (Homo sapiens); assay: Inhibition of Bach1 in normal human lung fibroblasts assessed as induction of HMOX protein expression at 0.039 uM incubated for 16 to 18 hrs in presence of 0.0097 uM Nrf2 activator Bardoxolone methyl by immunostaining relative to control
[12] = biological target: T1, Transcription regulator protein BACH1 (Homo sapiens); assay: Inhibition of Bach1 in normal human lung fibroblasts assessed as induction of HMOX protein expression at 0.312 uM incubated for 16 to 18 hrs by immunostaining relative to control
[13] = biological target: T1, Transcription regulator protein BACH1 (Homo sapiens); assay: Inhibition of Bach1 in normal human lung fibroblasts assessed as induction of HMOX protein expression at 0.312 uM incubated for 16 to 18 hrs in presence of 0.039 uM Nrf2 activator Bardoxolone methyl by immunostaining relative to control
[14] = biological target: T1, Transcription regulator protein BACH1 (Homo sapiens); assay: Inhibition of Bach1 in normal human lung fibroblasts assessed as induction of HMOX protein expression at 0.039 uM incubated for 16 to 18 hrs in presence of 0.019 uM Nrf2 activator Bardoxolone methyl by immunostaining relative to control
[15] = biological target: T1, Transcription regulator protein BACH1 (Homo sapiens); assay: Inhibition of Bach1 in normal human lung fibroblasts assessed as induction of HMOX protein expression at 0.019 uM incubated for 16 to 18 hrs in presence of 0.0048 uM Nrf2 activator Bardoxolone methyl by immunostaining relative to control
[16] = biological target: T1, Transcription regulator protein BACH1 (Homo sapiens); assay: Inhibition of Bach1 in normal human lung fibroblasts assessed as induction of HMOX protein expression at 2.5 uM incubated for 16 to 18 hrs in presence of 0.078 uM Nrf2 activator Bardoxolone methyl by immunostaining relative to control
[17] = biological target: T1, Transcription regulator protein BACH1 (Homo sapiens); assay: Inhibition of Bach1 in normal human lung fibroblasts assessed as induction of HMOX protein expression at 0.019 uM incubated for 16 to 18 hrs in presence of 0.156 uM Nrf2 activator Bardoxolone methyl by immunostaining relative to control
[18] = biological target: T1, Transcription regulator protein BACH1 (Homo sapiens); assay: Inhibition of Bach1 in normal human lung fibroblasts assessed as induction of HMOX protein expression at 1.25 uM incubated for 16 to 18 hrs in presence of 0.019 uM Nrf2 activator Bardoxolone methyl by immunostaining relative to control
[19] = biological target: T1, Transcription regulator protein BACH1 (Homo sapiens); assay: Inhibition of Bach1 in normal human lung fibroblasts assessed as induction of HMOX protein expression at 0.156 uM incubated for 16 to 18 hrs in presence of 0.078 uM Nrf2 activator Bardoxolone methyl by immunostaining relative to control
[20] = biological target: T1, Transcription regulator protein BACH1 (Homo sapiens); assay: Inhibition of Bach1 in normal human lung fibroblasts assessed as induction of HMOX protein expression at 0.625 uM incubated for 16 to 18 hrs in presence of 0.156 uM Nrf2 activator Bardoxolone methyl by immunostaining relative to control
[21] = biological target: T1, Transcription regulator protein BACH1 (Homo sapiens); assay: Inhibition of Bach1 in normal human lung fibroblasts assessed as induction of HMOX protein expression at 0.156 uM incubated for 16 to 18 hrs in presence of 0.039 uM Nrf2 activator Bardoxolone methyl by immunostaining relative to control

fold change (FC) [1]: 12.5
fold change (FC) [2]: 17.9
fold change (FC) [3]: 15.9
fold change (FC) [4]: 15
fold change (FC) [5]: 8.04
fold change (FC) [6]: 15.9
fold change (FC) [7]: 2.32
fold change (FC) [8]: 3.24
fold change (FC) [9]: 17.5
fold change (FC) [10]: 12.7
fold change (FC) [11]: 5.31
fold change (FC) [12]: 9.82
fold change (FC) [13]: 19.6
fold change (FC) [14]: 8.57
fold change (FC) [15]: 2.88
fold change (FC) [16]: 14.3
fold change (FC) [17]: 22.9
fold change (FC) [18]: 15.9
fold change (FC) [19]: 18.4
fold change (FC) [20]: 18.7
fold change (FC) [21]: 17.6
SMILES: CNC(=O)c1ccc2c(c1)nc(Nc1nc3ccc(OC(F)(F)F)cc3s1)n2C
